Experimental data: paper PMC6717788 (The Korean Journal of Physiology & Pharmacology : …, 2019)

Legend:
[1] = molecular target: T1, Slo3 (potassium channel subfamily U member 1, KCNU1) (Homo sapiens, UniProt A8MYU2); test: whole-cell patch clamp, HEK293 cells, […] single dose; assay type: cell-based; conditions: HEK293, read-out: % inhibition at 50 μM
T1 sequence (A8MYU2 1-1149): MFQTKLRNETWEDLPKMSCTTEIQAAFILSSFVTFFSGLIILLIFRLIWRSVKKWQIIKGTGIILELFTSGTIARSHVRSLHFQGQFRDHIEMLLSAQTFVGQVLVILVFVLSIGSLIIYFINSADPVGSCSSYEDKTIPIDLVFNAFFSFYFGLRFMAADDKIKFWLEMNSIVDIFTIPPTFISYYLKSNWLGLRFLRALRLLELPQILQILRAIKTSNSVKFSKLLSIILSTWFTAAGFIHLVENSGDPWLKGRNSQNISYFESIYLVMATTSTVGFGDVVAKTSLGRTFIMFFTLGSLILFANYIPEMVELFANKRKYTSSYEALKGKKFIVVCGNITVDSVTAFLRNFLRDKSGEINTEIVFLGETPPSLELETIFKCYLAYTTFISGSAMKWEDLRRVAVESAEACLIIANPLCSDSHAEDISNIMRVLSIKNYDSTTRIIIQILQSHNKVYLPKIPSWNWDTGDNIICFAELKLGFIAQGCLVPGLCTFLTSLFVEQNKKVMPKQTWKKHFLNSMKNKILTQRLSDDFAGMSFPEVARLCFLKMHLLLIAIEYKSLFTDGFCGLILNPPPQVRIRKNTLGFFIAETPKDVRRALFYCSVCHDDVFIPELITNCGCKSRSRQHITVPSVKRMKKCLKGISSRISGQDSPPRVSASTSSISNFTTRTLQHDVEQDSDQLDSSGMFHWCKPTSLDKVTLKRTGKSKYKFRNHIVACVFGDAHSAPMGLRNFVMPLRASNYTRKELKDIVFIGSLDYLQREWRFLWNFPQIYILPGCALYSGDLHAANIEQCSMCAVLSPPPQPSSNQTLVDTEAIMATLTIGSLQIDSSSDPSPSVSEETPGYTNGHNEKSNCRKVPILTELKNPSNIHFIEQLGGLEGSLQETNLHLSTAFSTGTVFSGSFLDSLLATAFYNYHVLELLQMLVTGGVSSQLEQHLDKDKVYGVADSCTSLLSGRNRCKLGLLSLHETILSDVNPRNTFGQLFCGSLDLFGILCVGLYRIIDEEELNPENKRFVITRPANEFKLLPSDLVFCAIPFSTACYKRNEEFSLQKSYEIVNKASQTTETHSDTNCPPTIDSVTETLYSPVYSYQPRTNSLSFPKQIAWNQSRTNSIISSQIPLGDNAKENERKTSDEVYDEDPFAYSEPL
T1 sequence (Q8N7C0 24-313 partner): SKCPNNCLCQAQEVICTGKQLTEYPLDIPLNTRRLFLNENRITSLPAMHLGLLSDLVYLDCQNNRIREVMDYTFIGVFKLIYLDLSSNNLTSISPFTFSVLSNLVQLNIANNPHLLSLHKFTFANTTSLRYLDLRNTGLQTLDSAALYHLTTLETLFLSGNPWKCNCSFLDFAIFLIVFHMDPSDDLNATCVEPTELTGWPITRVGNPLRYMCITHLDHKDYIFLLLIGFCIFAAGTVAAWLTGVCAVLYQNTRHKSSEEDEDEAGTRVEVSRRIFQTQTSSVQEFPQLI

[2] = molecular target: T1, Slo3 (potassium channel subfamily U member 1, KCNU1); test: whole-cell patch clamp, HEK293 cells, dose response; assay type: cell-based

O=c1cc(-c2ccc(O)c(O)c2)oc2cc(O)cc(O)c12 [luteolin]
inhibition at 50 µM [1]: 53.5 ± 3.15%

O=c1c(O)c(-c2ccc(O)cc2O)oc2cc(O)cc(O)c12 [morin]
inhibition at 50 µM [1]: 42.1 ± 2.16%

O=c1c(O)c(-c2ccc(O)c(O)c2)oc2cc(O)cc(O)c12 [quercetin]
EC50 [2]: 11.3 µM
